In patent publication US8193221B2, “Insecticidal compounds” (Syngenta Crop Protection LLC, priority 2007, dated 2012):
Read-outs that look alike come from different tables or passages of the source.

Legend:
Format in all cases: in vivo
Spodoptera littoralis = Spodoptera littoralis (Egyptian cotton leafworm) cotton leaf disc spray test; conditions: for pest or weed control at 200 ppm: foliar, 72 h, read-out: control of Spodoptera littoralis; for damage to the test organisms: same protocol, 200 ppm
Text: Spodoptera littoralis (Egyptian Cotton Leafworm):
Cotton leaf discs were placed on agar in a 24-well microtiter plate and sprayed with test solutions at an application rate of 200 ppm. After drying, the leaf discs were infested with 5 L1 larvae. The samples were checked for mortality, feeding behavior, and growth regulation 3 days after treatment (DAT).

Thrips tabaci = Thrips tabaci (onion thrips) sunflower leaf disc spray test; conditions: same protocol, 200 ppm
Experimental: Thrips tabaci (Onion Trips):
Sunflower leaf discs were placed on agar in a 24-well microtiter plate and sprayed with test solutions at an application rate of 200 ppm. After drying, the leaf discs were infested with an […] population of mixed ages. After an incubation period of 7 days, samples were checked for mortality.

Heliothis virescens = Heliothis virescens (tobacco budworm) egg test on artificial diet; conditions: same protocol, 200 ppm
Experimental: Heliothis virescens (Tobacco Budworm):
Eggs (0-24 h old) were placed in 24-well microtiter plate on artificial diet and treated with test solutions at an application rate of 200 ppm (concentration in well 18 ppm) by pipetting. After an incubation period of 4 days, samples were checked for egg mortality, larval mortality, and growth regulation.

Diabrotica balteata = Diabrotica balteata (corn root worm) larval test on artificial diet; conditions: same protocol, 200 ppm
Experimental: Diabrotica balteata (Corn Root Worm):
(§1) A 24-well microtiter plate (MTP) with artificial diet was treated with test solutions at an application rate of 200 ppm (concentration in well 18 ppm) by pipetting. After drying, the MTP's were infested with L2 larvae (6-10 per well). After an incubation period of 5 days, samples were checked for larval mortality and growth regulation.

Tetranychus urticae = Tetranychus urticae (two-spotted spider mite) bean leaf disc spray test; conditions: same protocol, 200 ppm
Text: Tetranychus urticae (Two-Spotted Spider Mite):
Bean leaf discs on agar in 24-well microtiter plates were sprayed with test solutions at an application rate of 200 ppm. After drying, the leaf discs are infested with mite populations of mixed ages. 8 days later, discs are checked for egg mortality, larval mortality, and adult mortality.

Plutella xylostella = Plutella xylostella (diamond back moth) larval test on artificial diet; conditions: same protocol, 200 ppm
Experimental: Plutella xylostella (Diamond Back Moth):
as §1, with “24-well” for “A 24-well”, “(7-12” for “(6-10”, “6” for “5”

[1] = 200 ppm sprayed on cotton leaf discs, L1 larvae, mortality, feeding behavior, growth regulation 3 DAT

Compound	pest or weed control at 200 ppm (Spodoptera littoralis; [1])	pest or weed control at 200 ppm (Spodoptera littoralis)	damage to the test organisms (Spodoptera littoralis)	damage to the test organisms (Thrips tabaci)	damage to the test organisms (Heliothis virescens)	damage to the test organisms (Diabrotica balteata)	damage to the test organisms (Tetranychus urticae)	damage to the test organisms (Plutella xylostella)
Cc1cc(C2=NOC(c3cc(Cl)cc(Cl)c3)(C(F)(F)F)C2)ccc1/C(N)=N/O (centres unmarked) [Compound A1, 4-[5-(3,5-dichloro-phenyl)-5-trifluoromethyl-4,5-dihydro-isoxazol-3-yl]-N-hydroxy-2-methyl-benzamidine]	≥ 80%							
C#CCONC(=N)c1ccc(C2=NOC(c3cc(Cl)cc(Cl)c3)(C(F)(F)F)C2)cc1C (centres unmarked) [Compound A2, 4-[5-(3,5-dichloro-phenyl)-5-trifluoromethyl-4,5-dihydro-isoxazol-3-yl]-2-methyl-N-prop-2-ynyloxy-benzamidine]		≥ 80%						
[H]/N=C(\NOC)c1ccc(C2=NOC(c3cc(Cl)cc(Cl)c3)(C(F)(F)F)C2)cc1C (centres unmarked) [Compound A3]	≥ 80%							
[H]/N=C(\NOCC)c1ccc(C2=NOC(c3cc(Cl)cc(Cl)c3)(C(F)(F)F)C2)cc1C (centres unmarked) [Compound A4]	≥ 80%							
[H]/N=C(\NOCC=C)c1ccc(C2=NOC(c3cc(Cl)cc(Cl)c3)(C(F)(F)F)C2)cc1C (centres unmarked) [Compound A5]	≥ 80%							
[H]/N=C(\NOCCCC)c1ccc(C2=NOC(c3cc(Cl)cc(Cl)c3)(C(F)(F)F)C2)cc1C (centres unmarked) [Compound A6]	≥ 80%							
CCOC(=O)/C=C/CONC(=N)c1ccc(C2=NOC(c3cc(Cl)cc(Cl)c3)(C(F)(F)F)C2)cc1C (centres unmarked) [Compound A13]			little or no damage	little or no damage	little or no damage	little or no damage	little or no damage	little or no damage
Cc1cc(C2=NOC(c3cc(Cl)cc(Cl)c3)(C(F)(F)F)C2)ccc1C(=N)NOCC1CCCCO1 (centres unmarked) [Compound A14]			little or no damage	little or no damage	little or no damage	little or no damage	little or no damage	little or no damage
Cc1cc(C2=NOC(c3cc(Cl)cc(Cl)c3)(C(F)(F)F)C2)ccc1C(=N)NOCc1cc(Cl)cc2c1OCOC2 (centres unmarked) [Compound A19]			little or no damage	little or no damage	little or no damage	little or no damage	little or no damage	little or no damage
Cc1cc(C2=NOC(c3cc(Cl)cc(Cl)c3)(C(F)(F)F)C2)ccc1C(=N)NOC(C)C(=O)Nc1ccccc1 (centres unmarked) [Compound A24]			little or no damage	little or no damage	little or no damage	little or no damage	little or no damage	little or no damage
[H]/N=C(\NOCC#CC)c1ccc(C2=NOC(c3cc(Cl)cc(Cl)c3)(C(F)(F)F)C2)cc1C (centres unmarked) [Compound A25]	≥ 80%							
Cc1cc(C2=NOC(c3cc(Cl)cc(Cl)c3)(C(F)(F)F)C2)ccc1C(=N)NOCC1CCCCC1 (centres unmarked) [Compound A26]			little or no damage	little or no damage	little or no damage	little or no damage	little or no damage	little or no damage
[H]/N=C(\NOCCC)c1ccc(C2=NOC(c3cc(Cl)cc(Cl)c3)(C(F)(F)F)C2)cc1C (centres unmarked) [Compound A27]	≥ 80%							
COc1ccc(C(=O)CONC(=N)c2ccc(C3=NOC(c4cc(Cl)cc(Cl)c4)(C(F)(F)F)C3)cc2C)cc1 (centres unmarked) [Compound A28]			little or no damage	little or no damage	little or no damage	little or no damage	little or no damage	little or no damage
Cc1cc(C2=NOC(c3cc(Cl)cc(Cl)c3)(C(F)(F)F)C2)ccc1C(=N)NOCc1sc(Cl)nc1C(F)(F)F (centres unmarked) [Compound A32]			little or no damage	little or no damage	little or no damage	little or no damage	little or no damage	little or no damage
CCOC(=O)c1ccc(CONC(=N)c2ccc(C3=NOC(c4cc(Cl)cc(Cl)c4)(C(F)(F)F)C3)cc2C)o1 (centres unmarked) [Compound A33]			little or no damage	little or no damage	little or no damage	little or no damage	little or no damage	little or no damage
